We go through four molecules from ChEMBL document CHEMBL1142715, “Discovery of new tetracyclic tetrahydrofuran derivatives as potential broad-spectrum psychotropic agents” (J Med Chem, 2005).

Molecules are shown by their SMILES.

The subject of assay [1] is Rattus norvegicus. Nature of the assay: In vivo effective dose to inhibit tryptamine-induced bilateral convulsions in rats. It is filed as functional.
In assay [2] the test system is Mus musculus. Nature of the assay: In vivo effective dose for reversal of RO-4-1284 induced hypothermia in mouse. In kind it is functional.
Assay [3] addresses T1, 5-hydroxytryptamine receptor 2C (Homo sapiens, UniProt P28335).
T1 sequence (P28335 whole entry): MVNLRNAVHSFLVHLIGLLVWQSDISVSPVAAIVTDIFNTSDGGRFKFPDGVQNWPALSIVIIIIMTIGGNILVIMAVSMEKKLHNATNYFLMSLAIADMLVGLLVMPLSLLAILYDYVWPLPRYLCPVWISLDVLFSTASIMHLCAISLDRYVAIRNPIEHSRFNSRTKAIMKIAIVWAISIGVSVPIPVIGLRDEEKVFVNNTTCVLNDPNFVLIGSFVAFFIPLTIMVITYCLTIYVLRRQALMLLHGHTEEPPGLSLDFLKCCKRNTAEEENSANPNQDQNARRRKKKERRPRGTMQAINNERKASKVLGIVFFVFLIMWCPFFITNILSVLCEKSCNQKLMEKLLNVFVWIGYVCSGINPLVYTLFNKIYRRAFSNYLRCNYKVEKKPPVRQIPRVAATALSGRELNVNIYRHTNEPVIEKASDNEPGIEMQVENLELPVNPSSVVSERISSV
Description: Inhibition of [3H]mesulergine binding to human 5-hydroxytryptamine 2C receptor

The test system of assay [4] is Rattus norvegicus. Briefly: In vivo effective dose to inhibit apomorphine induced agitation in rats upon subcutaneous administration. The conditions noted are these: sc. In kind it is functional.
For assay [5], the system named is Rattus norvegicus. Briefly: In vivo effective dose for reversal of tryptamine-induced backward locomotion in rats. It is filed as functional.
Assay [6] has as its target D(1A) dopamine receptor (Rattus norvegicus, UniProt P18901).
Description: Inhibition of [3H]SCH-23390 binding to rat Dopamine receptor D1
Assay [7] deals with Rattus norvegicus. Briefly: In vivo effective dose for reversal of tryptamine-induced cyanosis in rats. In kind it is functional.
In assay [8] the target is T2, Alpha-2C adrenergic receptor (Homo sapiens, UniProt P18825).
T2 sequence (P18825 whole entry): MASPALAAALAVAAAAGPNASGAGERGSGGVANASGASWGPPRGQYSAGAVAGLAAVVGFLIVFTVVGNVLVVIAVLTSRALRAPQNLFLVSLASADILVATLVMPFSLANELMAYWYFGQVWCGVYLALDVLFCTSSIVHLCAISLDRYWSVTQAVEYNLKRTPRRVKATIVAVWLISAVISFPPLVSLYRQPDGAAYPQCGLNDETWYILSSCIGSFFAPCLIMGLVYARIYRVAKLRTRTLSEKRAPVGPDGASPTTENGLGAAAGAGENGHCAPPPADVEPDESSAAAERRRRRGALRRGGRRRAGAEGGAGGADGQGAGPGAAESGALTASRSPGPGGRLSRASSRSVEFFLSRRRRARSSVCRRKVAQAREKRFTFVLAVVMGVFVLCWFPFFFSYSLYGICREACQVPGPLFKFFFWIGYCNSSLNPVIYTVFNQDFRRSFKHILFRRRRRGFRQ
Briefly: Inhibition of [3H]rauwolscine binding to Alpha-2C adrenergic receptor.

Assay [9] has as its target Norepinephrine transporter (Rattus norvegicus, UniProt Q9WTR4). Nature of the assay: Inhibition of [3H]nisoxetine binding to rat Norepinephrine transporter.
The species entered for assay [10] is Rattus norvegicus. Briefly: Effective dose for antagonistic activity against m-chlorophenyl-piperazine induced anxiety in rats. It is filed as functional.
Assay [11] has as its target T3, Adrenergic receptor alpha-1 (Rattus norvegicus, UniProt P15823+P23944+P43140).
T3 sequence (P15823 whole entry): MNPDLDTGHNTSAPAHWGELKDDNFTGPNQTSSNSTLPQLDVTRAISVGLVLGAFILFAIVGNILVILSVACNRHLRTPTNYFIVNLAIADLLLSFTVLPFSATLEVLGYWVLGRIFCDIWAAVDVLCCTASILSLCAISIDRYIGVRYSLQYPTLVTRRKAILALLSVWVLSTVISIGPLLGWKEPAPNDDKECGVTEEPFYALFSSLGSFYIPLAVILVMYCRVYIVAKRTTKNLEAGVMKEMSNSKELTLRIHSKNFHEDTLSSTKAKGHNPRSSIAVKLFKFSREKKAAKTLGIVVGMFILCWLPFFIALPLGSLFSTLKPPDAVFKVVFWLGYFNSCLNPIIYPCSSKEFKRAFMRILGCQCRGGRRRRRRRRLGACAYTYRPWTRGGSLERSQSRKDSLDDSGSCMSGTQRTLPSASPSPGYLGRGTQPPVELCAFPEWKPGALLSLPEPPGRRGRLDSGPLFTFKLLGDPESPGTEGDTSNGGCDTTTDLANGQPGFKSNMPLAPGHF
T3 sequence (P23944 whole entry): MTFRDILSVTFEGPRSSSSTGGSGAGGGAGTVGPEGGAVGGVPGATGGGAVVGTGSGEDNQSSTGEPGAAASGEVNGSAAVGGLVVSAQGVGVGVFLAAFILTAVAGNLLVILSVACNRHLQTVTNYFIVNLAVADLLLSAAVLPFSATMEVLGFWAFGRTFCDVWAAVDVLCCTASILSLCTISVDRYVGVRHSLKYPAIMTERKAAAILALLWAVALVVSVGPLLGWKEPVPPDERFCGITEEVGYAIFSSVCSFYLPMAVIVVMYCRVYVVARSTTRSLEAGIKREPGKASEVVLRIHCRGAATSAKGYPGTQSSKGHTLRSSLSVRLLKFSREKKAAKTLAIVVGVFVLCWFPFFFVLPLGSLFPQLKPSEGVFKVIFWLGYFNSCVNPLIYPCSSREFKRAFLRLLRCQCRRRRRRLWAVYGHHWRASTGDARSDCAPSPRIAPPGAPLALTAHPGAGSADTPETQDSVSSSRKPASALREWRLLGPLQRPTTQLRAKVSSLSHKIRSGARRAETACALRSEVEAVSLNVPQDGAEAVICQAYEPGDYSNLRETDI
T3 sequence (P43140 whole entry): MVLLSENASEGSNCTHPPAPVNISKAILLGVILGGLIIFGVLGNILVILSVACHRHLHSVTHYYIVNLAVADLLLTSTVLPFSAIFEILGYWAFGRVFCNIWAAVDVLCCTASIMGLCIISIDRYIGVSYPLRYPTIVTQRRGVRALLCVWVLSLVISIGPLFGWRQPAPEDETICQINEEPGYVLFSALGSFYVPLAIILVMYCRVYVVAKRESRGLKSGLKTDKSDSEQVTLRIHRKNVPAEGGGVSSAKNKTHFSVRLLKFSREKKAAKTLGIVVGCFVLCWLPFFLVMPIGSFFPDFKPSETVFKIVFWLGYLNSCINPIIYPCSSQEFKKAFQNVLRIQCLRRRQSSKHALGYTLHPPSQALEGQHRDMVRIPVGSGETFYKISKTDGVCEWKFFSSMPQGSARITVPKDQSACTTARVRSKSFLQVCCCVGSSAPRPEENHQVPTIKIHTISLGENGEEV
Description: Inhibition of [3H]prazosin binding to rat Alpha-1 adrenergic receptor

The target in assay [12] is 5-hydroxytryptamine receptor 7 (Homo sapiens, UniProt P34969).
5-hydroxytryptamine receptor 7, sequence (P34969 whole entry): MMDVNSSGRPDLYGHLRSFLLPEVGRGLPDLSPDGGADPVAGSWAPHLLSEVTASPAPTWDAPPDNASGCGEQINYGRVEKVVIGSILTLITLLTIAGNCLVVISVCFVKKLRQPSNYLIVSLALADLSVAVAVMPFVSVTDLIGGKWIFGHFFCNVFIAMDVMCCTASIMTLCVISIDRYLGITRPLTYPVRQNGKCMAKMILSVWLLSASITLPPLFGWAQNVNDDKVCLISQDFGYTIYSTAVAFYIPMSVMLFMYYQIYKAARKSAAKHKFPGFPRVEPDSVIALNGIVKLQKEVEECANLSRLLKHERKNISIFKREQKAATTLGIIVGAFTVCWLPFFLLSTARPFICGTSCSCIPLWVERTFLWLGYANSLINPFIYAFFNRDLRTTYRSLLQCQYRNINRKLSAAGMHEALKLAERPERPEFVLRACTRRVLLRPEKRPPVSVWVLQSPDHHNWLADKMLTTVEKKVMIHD
Description: Inhibition of [3H]5-HT binding to human 5-hydroxytryptamine 7 receptor
The target in assay [13] is D(3) dopamine receptor (Homo sapiens, UniProt P35462).
D(3) dopamine receptor, sequence (P35462 whole entry): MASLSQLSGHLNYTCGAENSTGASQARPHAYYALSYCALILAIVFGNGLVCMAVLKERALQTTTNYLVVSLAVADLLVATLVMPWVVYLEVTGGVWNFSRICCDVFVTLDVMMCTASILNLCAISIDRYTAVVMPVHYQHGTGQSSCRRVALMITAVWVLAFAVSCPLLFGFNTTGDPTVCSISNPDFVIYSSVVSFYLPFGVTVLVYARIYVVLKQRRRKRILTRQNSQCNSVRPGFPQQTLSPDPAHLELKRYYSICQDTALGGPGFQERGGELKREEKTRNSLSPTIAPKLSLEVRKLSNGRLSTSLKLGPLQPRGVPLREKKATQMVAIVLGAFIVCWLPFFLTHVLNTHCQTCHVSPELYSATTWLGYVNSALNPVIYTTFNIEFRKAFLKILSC
Description: Inhibition of [125I]iodosulpiride binding to human Dopamine receptor D3
The target in assay [14] is T4, Alpha-2A adrenergic receptor (Homo sapiens, UniProt P08913).
T4 sequence (P08913 whole entry): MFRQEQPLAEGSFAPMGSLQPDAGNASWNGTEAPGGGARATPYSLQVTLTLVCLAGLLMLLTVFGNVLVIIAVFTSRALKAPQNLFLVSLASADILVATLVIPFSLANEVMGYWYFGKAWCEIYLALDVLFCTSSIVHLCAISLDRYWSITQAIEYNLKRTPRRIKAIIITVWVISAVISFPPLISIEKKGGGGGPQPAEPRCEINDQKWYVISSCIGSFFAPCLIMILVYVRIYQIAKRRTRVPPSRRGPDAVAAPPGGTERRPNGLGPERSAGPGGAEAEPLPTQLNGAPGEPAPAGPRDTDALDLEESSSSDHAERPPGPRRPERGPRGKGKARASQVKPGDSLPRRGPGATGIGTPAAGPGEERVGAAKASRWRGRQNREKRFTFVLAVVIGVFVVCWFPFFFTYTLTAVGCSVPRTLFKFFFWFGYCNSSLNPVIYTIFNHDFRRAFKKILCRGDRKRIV
Description: Inhibition of [3H]rauwolscine binding to Alpha-2A adrenergic receptor

Assay [15] has as its target D(1A) dopamine receptor (Homo sapiens, UniProt P21728). Briefly: Inhibition of [3H]SCH-23390 binding to human Dopamine receptor D1.
The target of assay [16] is Histamine H1 receptor (Homo sapiens, UniProt P35367).
Histamine H1 receptor, sequence (P35367 whole entry): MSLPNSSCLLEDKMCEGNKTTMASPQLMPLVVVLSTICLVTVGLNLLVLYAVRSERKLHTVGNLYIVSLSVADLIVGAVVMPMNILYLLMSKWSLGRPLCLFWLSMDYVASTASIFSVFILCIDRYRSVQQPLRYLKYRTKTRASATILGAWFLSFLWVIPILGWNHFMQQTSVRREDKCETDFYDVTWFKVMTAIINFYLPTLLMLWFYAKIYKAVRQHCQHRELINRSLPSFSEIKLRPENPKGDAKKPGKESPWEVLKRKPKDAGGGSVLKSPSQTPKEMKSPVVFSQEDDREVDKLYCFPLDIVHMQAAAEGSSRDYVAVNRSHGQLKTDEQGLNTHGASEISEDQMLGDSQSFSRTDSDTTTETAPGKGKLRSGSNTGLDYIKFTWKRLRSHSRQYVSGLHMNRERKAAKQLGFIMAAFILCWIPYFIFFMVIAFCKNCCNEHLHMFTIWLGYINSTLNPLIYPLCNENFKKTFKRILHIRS
Description: Inhibition of [3H]pyrilamine binding to human Histamine H1 receptor
The target of assay [17] is 5-hydroxytryptamine receptor 2A (Homo sapiens, UniProt P28223).
5-hydroxytryptamine receptor 2A, sequence (P28223 whole entry): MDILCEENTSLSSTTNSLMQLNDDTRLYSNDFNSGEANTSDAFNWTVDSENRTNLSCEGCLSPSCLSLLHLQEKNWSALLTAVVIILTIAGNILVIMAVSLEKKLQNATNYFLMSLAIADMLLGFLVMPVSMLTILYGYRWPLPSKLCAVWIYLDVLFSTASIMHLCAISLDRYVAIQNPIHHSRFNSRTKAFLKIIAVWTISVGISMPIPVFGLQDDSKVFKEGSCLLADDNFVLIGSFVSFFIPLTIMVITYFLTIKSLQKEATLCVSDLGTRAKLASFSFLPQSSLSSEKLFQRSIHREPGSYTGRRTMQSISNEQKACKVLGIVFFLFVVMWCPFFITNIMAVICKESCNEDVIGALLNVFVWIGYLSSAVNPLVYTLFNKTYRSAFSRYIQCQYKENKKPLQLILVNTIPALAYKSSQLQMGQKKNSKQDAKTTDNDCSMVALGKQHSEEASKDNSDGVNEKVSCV
Description: Inhibition of [125I]R91150 binding to human 5-hydroxytryptamine 2A receptor

Norepinephrine transporter, sequence (Q9WTR4 whole entry): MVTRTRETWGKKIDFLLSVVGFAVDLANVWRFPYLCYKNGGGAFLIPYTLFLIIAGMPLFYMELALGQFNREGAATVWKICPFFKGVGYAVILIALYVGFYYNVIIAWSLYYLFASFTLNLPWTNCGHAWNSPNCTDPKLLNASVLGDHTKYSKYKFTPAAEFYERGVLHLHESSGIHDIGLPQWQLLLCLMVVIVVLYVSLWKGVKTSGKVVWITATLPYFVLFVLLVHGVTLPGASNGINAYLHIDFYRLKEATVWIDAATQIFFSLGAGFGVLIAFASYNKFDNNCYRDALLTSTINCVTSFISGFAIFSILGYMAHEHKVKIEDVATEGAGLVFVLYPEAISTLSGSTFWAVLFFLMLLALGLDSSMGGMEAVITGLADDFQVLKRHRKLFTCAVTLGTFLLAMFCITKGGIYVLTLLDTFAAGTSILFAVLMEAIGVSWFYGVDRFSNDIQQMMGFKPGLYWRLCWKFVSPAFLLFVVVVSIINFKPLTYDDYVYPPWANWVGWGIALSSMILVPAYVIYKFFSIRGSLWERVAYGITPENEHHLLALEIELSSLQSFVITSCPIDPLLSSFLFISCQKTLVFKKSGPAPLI
D(1A) dopamine receptor (Rattus norvegicus, UniProt P18901), sequence (P18901 whole entry): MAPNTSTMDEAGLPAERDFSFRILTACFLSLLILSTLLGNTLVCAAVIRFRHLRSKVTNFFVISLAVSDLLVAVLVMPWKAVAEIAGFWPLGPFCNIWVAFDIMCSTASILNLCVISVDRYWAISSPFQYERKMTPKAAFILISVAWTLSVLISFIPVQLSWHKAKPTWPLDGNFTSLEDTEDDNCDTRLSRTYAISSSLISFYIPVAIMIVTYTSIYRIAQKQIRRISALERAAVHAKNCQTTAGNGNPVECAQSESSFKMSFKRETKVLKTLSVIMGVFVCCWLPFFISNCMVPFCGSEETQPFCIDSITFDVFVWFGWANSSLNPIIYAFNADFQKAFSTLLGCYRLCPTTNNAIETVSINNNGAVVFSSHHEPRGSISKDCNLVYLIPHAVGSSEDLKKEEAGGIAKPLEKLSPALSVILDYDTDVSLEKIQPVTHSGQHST
D(1A) dopamine receptor (Homo sapiens, UniProt P21728), sequence (P21728 whole entry): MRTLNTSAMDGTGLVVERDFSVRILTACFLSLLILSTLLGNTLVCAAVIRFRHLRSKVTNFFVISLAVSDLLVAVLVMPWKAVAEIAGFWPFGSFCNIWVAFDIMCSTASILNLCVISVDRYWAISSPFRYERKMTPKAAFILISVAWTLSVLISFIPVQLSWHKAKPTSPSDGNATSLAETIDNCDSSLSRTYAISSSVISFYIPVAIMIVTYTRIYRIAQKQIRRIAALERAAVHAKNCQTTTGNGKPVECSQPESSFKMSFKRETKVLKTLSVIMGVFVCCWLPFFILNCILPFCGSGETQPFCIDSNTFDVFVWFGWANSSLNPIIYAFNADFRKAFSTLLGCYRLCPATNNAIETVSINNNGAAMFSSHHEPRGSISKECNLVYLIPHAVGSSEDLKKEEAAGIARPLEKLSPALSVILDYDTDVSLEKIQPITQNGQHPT

On to `CN1CCN2c3ncccc3Cc3ccccc3C2C1` (configuration not stated) [MIRTAZAPINE], for which the ED50 in assay [1] is 0.32 mg/kg; in [2], > 40 mg/kg; in [4], > 10 mg/kg; in assay [5], 0.5 mg/kg; in [7] it was 0.8 mg/kg; in assay [10] it was 0.1 mg/kg. The Ki worked out at 39 nM in assay [3]; 4170 nM in assay [6]; 18 nM in assay [8]; 1640 nM in [9]; 608 nM in assay [11].

With `CN(C)C[C@H]1CC2c3ccccc3Sc3ccc(F)cc3[C@H]2O1` (stereo in doubt; (-)-8d), the ED50 is 0.0079 mg/kg in [1]; 0.025 mg/kg in [2]; 0.13 mg/kg in [4]; 0.32 mg/kg in assay [5]; 0.013 mg/kg in assay [7]; > 0.63 mg/kg in [10]. Moreover, the Ki in assay [12] was 6.2 nM; in assay [3] it was 0.21 nM; in [13], 19 nM; in assay [14] it was 79 nM; in assay [15], 3 nM; in assay [8], 73 nM. In addition, the values for the Ki in assay [9], in assay [16] and in [11] were 2 nM, 0.6 nM and 7.5 nM, respectively.

Take `CN(C)C[C@@H]1CC2c3ccccc3Oc3ccc(F)cc3[C@H]2O1` (some centres not stated): the Ki in assay [12] was 57 nM; in assay [3] it was 7.6 nM; in [14], 251 nM; in assay [8], 219 nM; in assay [9], 20 nM; in assay [16], 33 nM. Further, the results for the Ki in [11] and in assay [17] were 338 nM and > 5450 nM, respectively.

For the molecule `CN(C)C[C@H]1CC2c3ccccc3Oc3ccc(F)cc3[C@H]2O1` (some centres not stated), the inhibitory constant (Ki) in [12] came to 80 nM; in assay [3], 4.3 nM; in assay [14] it was 269 nM; in assay [8] it was 200 nM; in [9] it was 3.6 nM; in [16], 7.5 nM. Further, the Ki was 71 nM in assay [11] and > 5450 nM in assay [17].
